Our source for the inhibition and IC50 values is patent publication US9006246B2, “Tetrahydrocarboline derivative” (Ono Pharmaceutical Co., Ltd., priority 2010, dated 2015).

Structures can show the parent of a compound that is named as a salt.

This test has as its target human ENPP2 (Homo sapiens (Human), UniProt Q13822). Description: Measurement of human ENPP2 inhibitory activity. It is filed as biochemical. As to conditions: 16:0-LPC substrate, 37° C., 24 hours; for inhibition at 1 µM: 1 μM test compound, read-out: ENPP2 inhibition rate(%) (1 μM). The protocol:
10 μL of a test compound solution (10% dimethyl sulfoxide) at each concentration and 40 μL of a 5 μg/mL human ENPP2 solution (buffer A: 100 mmol/L Tris-HCl (pH 9.0), 500 mmol/L NaCl, 5 mmol/L MgCl2, 0.05% Triton X-100) were mixed, 50 μL of a 2 mmol/L 16:0-lysophosphatidylcholine (LPC) solution (buffer A) was further added to react at 37° C. for 24 hours. Subsequently, to 10 μL of the reaction solution was added 90 μL of a measurement buffer (0.5 mmol/L aminoantipyrine, 0.3 mmol/L N-ethyl-N-(2-hydroxy-3-sulfopropyl)-3-methylaniline, 1 U/mL peroxidase, 3 U/mL choline oxidase, 100 mmol/L Tris-HCl (pH 8.5), 5 mmol/L CaCl2) to react at 37° C. for 20 minutes, and spectrophotometric determination was performed at 555 nm.
Using a standard curve, a choline production amount (enzyme activity) in each test compound was calculated, and the inhibitory activity rate of each test compound was calculated, wherein the enzyme activity in a positive control to which a test compound is not added, was a 0% inhibition rate, and the enzyme activity in a negative control to which a test compound and human ENPP2 are not added, were 100% inhibition. Further, concerning the present compounds shown in Table 3, an IC50 value was calculated from inhibitory activity rate at each concentration.

In the case of `COC(=O)CCCCC(=O)N1CCc2c(n(CCCc3ccccc3)c3ccccc23)C1` [Example 2, methyl 6-oxo-6-[9-(3-phenylpropyl)-1,3,4,9-tetrahydro-2H-beta-carbolin-2-yl]hexanoate], the inhibition (usually the share of the control response that was lost under treatment) at 1 µM turned out to be 67.7%. Take `O=C(O)CCCCCC(=O)N1CCc2c(n(CCCc3ccc(F)cc3)c3ccccc23)C1` [Example 3(19), 7-{9-[3-(4-fluorophenyl)propyl]-1,3,4,9-tetrahydro-2H-beta-carbolin-2-yl}-7-oxoheptanoic acid]: the inhibition at 1 µM was 95.1%. On to `O=C(O)CCCCC(=O)N1CCc2c(n(CCC3CCCCC3)c3ncccc23)C1` [Example 9(2), 6-[9-(2-cyclohexylethyl)-5,6,8,9-tetrahydro-7H-pyrido[4′,3′:4,5]pyrrolo[2,3-b]pyridin-7-yl]-6-oxohexanoic acid], for which inhibition was half-maximal at 16 nM (IC50).

As to `O=C(O)CCCC(=O)N1CCc2c(n(CCCc3ccccc3)c3ncccc23)C1` [Example 9(26), 5-oxo-5-[9-(3-phenylpropyl)-5,6,8,9-tetrahydro-7H-pyrido[4′,3′:4,5]pyrrolo[2,3-b]pyridin-7-yl]pentanoic acid], the inhibition at 1 µM was 59.3%.

For the compound `O=C(O)CCCCC(=O)N1CCc2c(n(CCOc3ccccc3)c3ncccc23)C1` [Example 9(28), 6-oxo-6-[9-(2-phenoxyethyl)-5,6,8,9-tetrahydro-7H-pyrido[4′,3′:4,5]pyrrolo[2,3-b]pyridin-7-yl]hexanoic acid], the inhibition at 1 µM stood at 76.6%. On to `O=C(O)CCCCC(=O)N1CCc2c(n(CCSc3ccccc3)c3ncccc23)C1` [Example 9(31), 6-oxo-6-{9-[2-(phenylthio)ethyl]-5,6,8,9-tetrahydro-7H-pyrido[4′,3′:4,5]pyrrolo[2,3-b]pyridin-7-yl}hexanoic acid], for which the inhibition at 1 µM amounted to 82.4%. Consider `O=C(O)CCCCC(=O)N1CCc2c(n(Cc3cccs3)c3ncccc23)C1` [Example 9(59), 6-oxo-6-[9-(2-thienylmethyl)-5,6,8,9-tetrahydro-7H-pyrido[4′,3′:4,5]pyrrolo[2,3-b]pyridin-7-yl]hexanoic acid], for which the inhibition at 1 µM is 69.3%. Consider `O=C(O)CCCCC(=O)N1CCc2c(n(Cc3cccc(F)c3)c3ncccc23)C1` [Example 9, 6-[9-(3-fluorobenzyl)-5,6,8,9-tetrahydro-7H-pyrido[4′,3′:4,5]pyrrolo[2,3-b]pyridin-7-yl]-6-oxohexanoic acid], for which half-maximal inhibition (IC50) was put at 91 nM. In the case of `CC(C)(CCCC(=O)N1CCc2c(n(Cc3ccccc3)c3ccccc23)C1)C(=O)O` [Example 12(27), 6-(9-benzyl-1,3,4,9-tetrahydro-2H-beta-carbolin-2-yl)-2,2-dimethyl-6-oxohexanoic acid], the inhibition at 1 µM is 91.9%.

In the case of `CC(C)(CCCC(=O)N1CCc2c(n(Cc3ccc(Cl)s3)c3ncccc23)C1)C(=O)O` [Example 12(42), 6-{9-[(5-chloro-2-thienyl)methyl]-5,6,8,9-tetrahydro-7H-pyrido[4′,3′:4,5]pyrrolo[2,3-b]pyridin-7-yl}-2,2-dimethyl-6-oxohexanoic acid], the IC50 (in general, the point on the concentration scale where inhibition reaches its midpoint) turned out to be 9.6 nM. This counts as single-digit nanomolar. On the same count and under the same terms, the same measure for `CC(C)(CCCC(=O)N1CCc2c(n(Cc3ccc(F)cc3F)c3ncccc23)C1)C(=O)O` [Example 12(97), 6-[9-(2,4-difluorobenzyl)-5,6,8,9-tetrahydro-7H-pyrido[4′,3′:4,5]pyrrolo[2,3-b]pyridin-7-yl]-2,2-dimethyl-6-oxohexanoic acid]: 6.7 nM.

For `CC(C)(CCC(=O)N1CCc2c(n(Cc3ccccc3)c3ccccc23)C1)CC(=O)O` [Example 15, 6-(9-benzyl-1,3,4,9-tetrahydro-2H-beta-carbolin-2-yl)-3,3-dimethyl-6-oxohexanoic acid], the inhibition at 1 µM was 84.1%. For the compound `CC(C)(OCC(=O)N1CCc2c(n(Cc3cccc(F)c3)c3ncccc23)C1)C(=O)O` [Example 18(1), 2-{2-[9-(3-fluorobenzyl)-5,6,8,9-tetrahydro-7H-pyrido[4′,3′:4,5]pyrrolo[2,3-b]pyridin-7-yl]-2-oxoethoxy}-2-methylpropanoic acid], the inhibition at 1 µM turned out to be 89.6%.

Regarding `CC(C)(CNCC(=O)N1CCc2c(n(Cc3cccc(F)c3)c3ncccc23)C1)C(=O)O` [Example 20, 3-({2-[9-(3-fluorobenzyl)-5,6,8,9-tetrahydro-7H-pyrido[4′,3′:4,5]pyrrolo[2,3-b]pyridin-7-yl]-2-oxoethyl}amino)-2,2-dimethylpropanoic acid hydrochloride], half-maximal inhibition (IC50) was put at 83 nM.

Regarding `CC1CN(C(=O)CCCC(C)(C)C(=O)O)Cc2c1c1cccnc1n2Cc1cccc(F)c1` (centres unmarked) [Example 23, 6-[9-(3-fluorobenzyl)-5-methyl-5,6,8,9-tetrahydro-7H-pyrido[4′,3′:4,5]pyrrolo[2,3-b]pyridin-7-yl]-2,2-dimethyl-6-oxohexanoic acid], the inhibition at 1 µM is 96.2%. As to `O=C(C[C@H]1CC[C@H](C(=O)O)CC1)N1CCc2c(n(Cc3ccc(F)cc3F)c3ncccc23)C1` [Example 31(32), trans-4-{2-[9-(2,4-difluorobenzyl)-5,6,8,9-tetrahydro-7H-pyrido[4′,3′:4,5]pyrrolo[2,3-b]pyridin-7-yl]-2-oxoethyl}cyclohexanecarboxylic acid], the inhibition at 1 µM was 98.2%.

Take `O=C(C[C@H]1CC[C@H](C(=O)O)CC1)N1CCc2c(n(Cc3ccc(Cl)cc3)c3ncccc23)C1` [Example 31(34), trans-4-{2-[9-(4-chlorobenzyl)-5,6,8,9-tetrahydro-7H-pyrido[4′,3′:4,5]pyrrolo[2,3-b]pyridin-7-yl]-2-oxoethyl}cyclohexanecarboxylic acid]: the inhibition at 1 µM came to 98.6%.

Compound `O=C(CC12CCC(C(=O)O)(CC1)CC2)N1CCc2c(n(Cc3cccc(F)c3)c3ncccc23)C1` [Example 31(127), 4-{2-[9-(3-fluorobenzyl)-5,6,8,9-tetrahydro-7H-pyrido[4′,3′:4,5]pyrrolo[2,3-b]pyridin-7-yl]-2-oxoethyl}bicyclo[2.2.2]octane-1-carboxylic acid] came in with an IC50 of 11 nM.

In the case of `O=C(CC12CCC(C(=O)O)(CC1)CC2)N1CCc2c(n(Cc3cc(F)cc(F)c3)c3ncccc23)C1` [Example 31(128), 4-{2-[9-(3,5-difluorobenzyl)-5,6,8,9-tetrahydro-7H-pyrido[4′,3′:4,5]pyrrolo[2,3-b]pyridin-7-yl]-2-oxoethyl}bicyclo[2.2.2]octane-1-carboxylic acid], the inhibition at 1 µM was 99%. For the compound `O=C(CC12CCC(C(=O)O)(CC1)CC2)N1CCc2c(n(Cc3cc(F)c(F)cc3F)c3ncccc23)C1` [Example 31(129), 4-{2-oxo-2-[9-(2,4,5-trifluorobenzyl)-5,6,8,9-tetrahydro-7H-pyrido[4′,3′:4,5]pyrrolo[2,3-b]pyridin-7-yl]ethyl}bicyclo[2.2.2]octane-1-carboxylic acid], the inhibition at 1 µM came to 99.8%.

`O=C(CC12CCC(C(=O)O)(CC1)CC2)N1CCc2c(n(Cc3ccc(Cl)cc3)c3ncccc23)C1` [Example 31(140), 4-{2-[9-(4-chlorobenzyl)-5,6,8,9-tetrahydro-7H-pyrido[4′,3′:4,5]pyrrolo[2,3-b]pyridin-7-yl]-2-oxoethyl}bicyclo[2.2.2]octane-1-carboxylic acid] came in with an IC50 of 11 nM. `CC1(C)[C@@H](CC(=O)N2CCc3c(n(Cc4ccc(Cl)cc4F)c4ncccc34)C2)CC[C@@]1(C)C(=O)O` [Example 31(160), (1R,3R)-3-{2-[9-(4-chloro-2-fluorobenzyl)-5,6,8,9-tetrahydro-7H-pyrido[4′,3′:4,5]pyrrolo[2,3-b]pyridin-7-yl]-2-oxoethyl}-1,2,2-trimethylcyclopentanecarboxylic acid]: the inhibition at 1 µM is 99.5%.

On to `CC1(C)[C@@H](CC(=O)N2CCc3c(n(Cc4ccc(F)cc4)c4ncccc34)C2)CC[C@@]1(C)C(=O)O` [Example 31(162), (1R,3R)-3-{2-[9-(4-fluorobenzyl)-5,6,8,9-tetrahydro-7H-pyrido[4′,3′:4,5]pyrrolo[2,3-b]pyridin-7-yl]-2-oxoethyl}-1,2,2-trimethylcyclopentanecarboxylic acid], for which the inhibition at 1 µM came out at 99.5%.

`CC1(C)[C@@H](CC(=O)N2CCc3c(n(Cc4ccc(F)c(Cl)c4)c4ncccc34)C2)CC[C@@]1(C)C(=O)O` [Example 31(169), (1R,3R)-3-{2-[9-(3-chloro-4-fluorobenzyl)-5,6,8,9-tetrahydro-7H-pyrido[4′,3′:4,5]pyrrolo[2,3-b]pyridin-7-yl]-2-oxoethyl}-1,2,2-trimethylcyclopentanecarboxylic acid]: the IC50 amounted to 13 nM.

`O=C(CC12CCC(C(=O)O)(CC1)CC2)N1CCc2c(n(Cc3ccc(F)c(F)c3)c3ncccc23)C1` [Example 31(170), 4-{2-[9-(3,4-difluorobenzyl)-5,6,8,9-tetrahydro-7H-pyrido[4′,3′:4,5]pyrrolo[2,3-b]pyridin-7-yl]-2-oxoethyl}bicyclo[2.2.2]octane-1-carboxylic acid]: the inhibition at 1 µM stood at 98%. For `O=C(CC12CCC(C(=O)O)(CC1)C2)N1CCc2c(n(Cc3cccc(F)c3)c3ncccc23)C1` [Example 31(181), 4-{2-[9-(3-fluorobenzyl)-5,6,8,9-tetrahydro-7H-pyrido[4′,3′:4,5]pyrrolo[2,3-b]pyridin-7-yl]-2-oxoethyl}bicyclo[2.2.1]heptane-1-carboxylic acid], the inhibition at 1 µM was 98.7%.
